“Also recorded” adds a separate entry of the source.
How the values were obtained:
murine LPS ARDS model [1] = test: Body weight and lung weight, murine LPS ARDS model; type: in vivo, mouse; details: for body weight loss: 72-hour study
Experimental: C57B16/N mice were obtained from Charles River Laboratories (Montreal, Quebec). Male mice, 20-25 g of body weight, were used throughout the studies. Animals were housed in specific pathogen[…]free conditions, and all experiments were approved by Institutional Animal Care and Use Committee (IPST_SL20200402-1). Animal studies are reported in compliance with […] guidelines.
(§1) In the ARDS group, mice received Escherichia coli O111:B4 lipopolysaccharide (50 μg in 0.05 mL saline, i.t.), while, in the control group, the animals received an instillation of saline (0.05 mL, i.t.). For intratracheal instillation, mice were slightly anesthetized with isoflurane.
(§2) The lipid SPPCT-800 was dissolved in water (low dose—2 mg/ml; high dose—20 mg/ml). For the 24-hour study, two treatment approaches were used. Mice received a single dose of SPPCT-800 (200 mg/kg, per gavage) as prevention (30 minutes before the LPS instillation), or as a single dose of either 20 mg/kg or 200 mg/kg as therapy (3-hour after the LPS instillation). For the 72-hour study, mice received a total of 8 treatments of SPPCT-800 (200 mg/kg) starting at 3-hour after the LPS instillation. Disease progression in mice was assessed by the evaluation of pulmonary functions, blood oxygen saturation, and body weight change. On the terminal day of each study (24 hours or 72 hours), measurement of cytokine levels in the plasma and BALF, and histopathology evaluations were done.
(§3) Statistical Analysis. Results are expressed as means±SEM. Comparisons were made on normally distributed data using ANOVA, followed by a Fisher post hoc test to assess the difference between LPS+vehicle group with GraphPad Prism Software version 8.0 (San Diego, CA, USA). Differences were considered statistically significant when P values were less than 0.05. (* Shown difference versus Sham animals and # shown difference versus LPS+Vehicle group. * Means P<0.05, ** P<0.01, *** P<0.001 while # means P<0.05, ##P<0.01 and ###P<0.001).

murine LPS ARDS model [2] = test: Overall efficacy in the murine LPS ARDS model; type: in vivo, mouse
Experimental: To investigate the role of the lipids of the present invention, such as SPPCT-800, as a treatment for ARDS, the inventors used a murine LPS model to measure histologic changes, lung and body weights, oxygen blood saturations and other pulmonary function parameters, BALF protein and cell counts, and pro-inflammatory cytokine levels in the plasma and BALF.
as §1
as §2, with “On the terminal day of each study (24 hours or 72 hours), measurement of cytokine levels in the plasma and BALF, and histopathology evaluations were done.” left out

[3] = Toxicity (non-toxic dose); details: in vivo
murine LPS ARDS model [4] = test: Arterial blood oxygen saturation (SpO2), murine LPS ARDS model; type: in vivo, mouse; details: 72-hour study; compared to untreated LPS group; did not reach statistical significance
Experimental: as §1
as §2, with “On the terminal day of each study (24 hours or 72 hours), measurement of cytokine levels in the plasma and BALF, and histopathology evaluations were done.” left out
At 0 hour (baseline), 24-hour post-LPS instillation, and 48 and 72-hour post LPS instillation, arterial blood oxygen saturation (SpO2) was recorded on conscious mice. SpO2 was read off of a pulse oximeter (STARR Life Sciences MouseOx Plus system, Oakmont, PA) with a mouse collar probe installed at the carotid level. The saturation values were measured in percentages (%).
Statistical Analysis. Results are expressed as means±SEM. […]

[5] = Detectable activity after a single dose; type: in vivo
murine LPS ARDS model [6] = test: BALF protein content and cell counts, murine LPS ARDS model; type: in vivo, mouse
Experimental: as §1, §2
Differential Cell Counts in BALF. The left lung was clamped while 0.9 mL of cold PBS 1×, Protease Inhibitor 1× (SigmaFast®) solution (3×300 μL) was injected so bronchoalveolar lavage fluid (BALF) from the right lobe of the lungs could be collected. The protein assay was performed according to the manufacturer's instruction BCA Protein Assay (Pierce™-#23227). Briefly, a dilution factor of 5 was used (1 part of BALF: 4 part of PBS 1×). 10 μL, of the diluted sample was added into the microplate wells. 200 μL of the working reagent was added into each well. The plate was covered, incubated at 37° C. for 30 minutes. After a cool-down period, the absorbance at 562 nm was rapidly measured using a monochromatic spectrophotometer (SpectraMAX ® plus—Molecular Devices). The total BALF protein content was reported by multiplying the protein concentration by the dilution factor, and then multiplying by the total of BALF volume collected.
as §3

murine LPS ARDS model [7] = test: Respiratory functions by whole-body plethysmograph, murine LPS ARDS model; type: in vivo, mouse; details: P<0.001
Experimental: as §1, §2
Respiratory Functions. All mice were introduced to the plethysmograph chamber environment. After the acclimatization period, the functional respiratory parameters were assessed by the whole-body plethysmograph (VivoFlow, SCIREQ, Montreal, Canada) at 0 hour (baseline), at 24-hour post-LPS instillation, and at 48 and 72-hour post-LPS instillation. Each measurement was performed with the mouse placed alone in an unrestrained whole-body plethysmography (WBP) chamber to measure respiratory functions. The WBP trace allowed us to determine specific information regarding the breathing pattern, and to derive important information associated with the development of inflammation. The functional respiratory parameters analyzed included respiratory rate, PenH (pulmonary congestion index), and inspiratory/expiratory time measurements. PenH, was used as an index of edema, inflammation and congestion (broncho-restriction).^24
as §3

Which results are given for CCCCCCCCCCCCCC(=O)OCC(COP(=O)([O-])OCC(COC(=O)CCC)OC(=O)CCC)OC(=O)CCCCCCCCCCCCC.CCCCCCCCCCCCCC(=O)OCC(COP(=O)([O-])OCC(COC(=O)CCC)OC(=O)CCC)OC(=O)CCCCCCCCCCCCC.[Mg+2] (centres unmarked) [SPPCT-800]?
body weight loss versus LPS (in words) (murine LPS ARDS model [1]; 48 hours and 72 hours after LPS treatment): significantly reduced; wet lung weight/dry lung ratio (murine LPS ARDS model [1]; 72 hours): decreased; lung index (lung weight/body weight×100) (murine LPS ARDS model [1]; 72 hours, P<0.05): reduced; also recorded: significantly decreased; lung weight (murine LPS ARDS model [1]; animals sacrificed at 72 hours, P=0.1100): tended to reduce; body weight loss (murine LPS ARDS model [1]; at 24 hours after LPS): 14%; body weight loss (murine LPS ARDS model [1]; at 48 hours after LPS, P<0.05 vs untreated LPS group): 14%; body weight loss (murine LPS ARDS model [1]; at 72 hours after LPS, P<0.05 vs untreated LPS group): 8%; efficacy against ARDS (murine LPS ARDS model [2]; all three studies, best results in the 72-hour study): effective; severe damage to the lung (murine LPS ARDS model [2]; single dose of 200 mg/kg, given 30 minutes before LPS challenge): significantly reduces; non-toxic dose [3]: up to 800 mg/kg per day; SpO2 levels (murine LPS ARDS model [4]): maintained; single dose with detectable activity [5]: 1 mg/kg; BALF protein content (murine LPS ARDS model [6]; 24 hours after LPS, single dose given as a preventive, P<0.05): significant reduction; BALF protein levels (murine LPS ARDS model [6]; at 72 hours, multidose treatment): major reductions; BALF neutrophil counts (murine LPS ARDS model [6]; at 72 hours, multidose treatment, P=0.1493, not statistically significant): reductions; BALF total cell count (murine LPS ARDS model [6]; at 72 hours, multidose treatment, P=0.1714, not statistically significant): reductions; inspiratory time (murine LPS ARDS model [7]; at 24 hours): Significant reductions; pulmonary congestion index (PenH) (murine LPS ARDS model [7]; at 24 hours): Significant reductions; expiratory time (murine LPS ARDS model [7]; at 48 hours): significant reductions; pulmonary congestion index (PenH) (murine LPS ARDS model [7]; at 48 hours): significant reductions
